{"source": "patent US20210260012A1", "about": "“COMPOSITIONS FOR THE PREVENTION AND TREATMENT OF CUTANEOUS AFFECTIONS” (I.C.F. SRL, priority 2018, published 2021)", "origin": "cited, not measured here", "tested_on": "biofilms from E. coli", "settings": "at high concentrations"}
{"smiles": "CC(=O)NC(CS)C(=O)O", "note": "(stereo not drawn) [Acetylcysteine, α-acetamido-β-mercaptopropanoic acid]", "values": [{"measurement": "reduction in the mass of biofilms", "value": "up to 55%"}]}
